Results from patent US5583248A, “Amino acid derivatives having antiviral activity” (Hoffmann-La Roche Inc., priority 1991, dated 1996).

Key:
[1] = test system: HTLV-III (strain RF) grown in C8166 cells; assay: in vitro antiviral activity (activity against HIV); format: cell-based; details: Human immunodeficiency virus 1, C8166, 72 h, read-out: Activity against HIV I50
Method: This assay uses HTLV-III (strain RF) grown in C8166 cells (a human CD4^+ T lymphoblastoid line) using RPM1 1640 medium with bicarbonate buffer, antibiotics and 10% foetal bovine serum.
A suspension of cells is infected with ten times the TCID50 of virus and adsorption is allowed to proceed for 90 minutes at 37° C. The cells are washed three times with medium. The test is carried out in 6 ml tissue culture tubes containing 2×10^5 infected cells in 1.5 ml of medium. Test compounds are dissolved in either aqueous medium or dimethyl sulphoxide, according to solubility, and a […] solution of the test compound is added. The cultures are incubated at 37° C. for 72 hours in a humidified atmosphere containing 5% carbon dioxide in air. The cultures are then centrifuged and an aliquot of the supernatant is solubilized with Nonidet P40 and subjected to an antigen capture assay which uses a primary antiserum with particular reactivity against the viral p24 antigen and a horseradish peroxidase detection system. Colour generation is measured spectrophotometrically and is plotted against the concentration of test compound. The concentration which produces 50% protection is determined (I50).

HIV protease = target: T1, HIV protease (Human immunodeficiency virus type 1 group M subtype B, UniProt P04585); assay: in vitro inhibition of HIV protease; format: biochemical; details: substrate succinyl-Val-Ser-Gln-Asn-Phe-Pro-Ile isobutylamide; citrate buffer pH5.5; 37° C.; 50% inhibition; read-out: HIV protease inhibition I50
T1 construct: HIV protease was expressed in E. coli; made in house; host or cells: E. coli
Method: HIV protease was expressed in E. coli and partially purified from soluble extracts of the bacterium by ammonium sulphate fractionation (0-30%). Protease activity was assayed using the protected heptapeptide succinyl-Val-Ser-Gln-Asn-Phe-Pro-Ile isobutylamide as the substrate. Cleavage of the substrate was quantified by measuring the production of H-Pro-Ile isobutyl-amide by the spectrophotometric assay of N-terminal proline,
1.25 mM of substrate were dissolved in 125 mM of citrate buffer (pH5.5) containing 0.125 mg/ml of Tween 20. […] of a solution of various concentrations of the test compound (dissolved in methanol or dimethyl sulphoxide and diluted with water containing 0.1% Tween 20) and […] of protease were added to […] of the above buffered substrate. Digestion was carried out at 37° C. for a fixed period of time and was terminated by the addition of 1 ml of colour reagent [30 mg/ml of isatin and 1.5 mg/ml of 2-(4-chlorobenzoyl)benzoic acid in 10% acetone in ethanol (vol./vol.)]. The solution was heated in a water bath and then the pigmented residues were re-dissolved in 1 ml of 1% pyrogallol in 33% water in acetone (wt./vol./vol.), The optical density of the solution was measured spectrophotometrically at 599 nm, The formation of H-Pro-Ile isobutylamide in the presence of the test compound was compared with controls and the concentration of test compound required to give 50% inhibition (I50) was determined by means of a graph plotted from the various concentrations of test compound used.

Question: With `CC(C)(C)NC(=O)[C@@H]1CCCC[C@H]1C[C@@H](O)[C@H](Cc1ccccc1)NC(=O)[C@H](CC(N)=O)NC(=O)OCc1ccccc1` [Compound A, 2(S)-[3(S)-[[N-(benzyloxycarbonyl)-L-asparaginyl]amino]-2(R)-hydroxy-4-phenylbutyl]-N-tert.butyl-1(R)-cyclohexanecarboxamide] as the compound, how does the IC50 [1] read?
Answer: The IC50 was 46 nM.

Question: What about the IC50 (HIV protease) of the same compound?
Answer: Its IC50 is 2 nM.

Question: What does the source list for `CC(C)(C)NC(=O)[C@@H]1CCCC[C@@H]1C[C@@H](O)[C@H](Cc1ccccc1)NC(=O)[C@H](CC(N)=O)NC(=O)OCc1ccccc1` [Compound B, 2(R)-[3(S)-[[N-(benzyloxycarbonyl)-L-asparaginyl]amino]-2(R)-hydroxy-4-phenylbutyl]-N-tert.butyl-1(R)-cyclohexanecarboxamide]?
Answer: IC50 [1]: 1000 nM; IC50 (HIV protease): 57 nM

Question: For `CC(C)(C)NC(=O)[C@@H]1CCCC[C@H]1C[C@@H](O)[C@H](Cc1ccccc1)NC(=O)[C@H](CC(N)=O)NC(=O)c1ccc2ccccc2n1` [Compound C, 2(S)-[3(S)-[[N-(2-quinolylcarbonyl)-L-asparaginyl]amino]-2(R)-hydroxy-4-phenylbutyl]-N-tert.butyl-1(R)-cyclohexanecarboxamide], which IC50 [1] is on record?
Answer: Its IC50 is 4 nM.

Question: `CSC[C@H](NC(=O)OCc1ccccc1)C(=O)N[C@@H](Cc1ccccc1)[C@H](O)C[C@@H]1CCCC[C@H]1C(=O)NC(C)(C)C` [Compound D, 2(S)-[3(S)-[[N-(benzyloxycarbonyl)-S-methyl-L-cysteinyl]amino]-2(R)-hydroxy-4-phenylbutyl]-N-tert.butyl-1(R)-cyclohexanecarboxamide] was tested. Which IC50 (HIV protease) did it give?
Answer: The IC50 was 1.3 nM.

Question: How did the IC50 (HIV protease) turn out when `COC(=O)C[C@H](NC(=O)OCc1ccccc1)C(=O)N[C@@H](Cc1ccccc1)[C@H](O)C[C@@H]1CCCC[C@H]1C(=O)NC(C)(C)C` [Compound E, 2(S)-[3(S)-[[N-(benzyloxycarbonyl)-O-methyl-L-aspartyl]amino]-2(R)-hydroxy-4-phenylbutyl]-N-tert.butyl-1(R)-cyclohexanecarboxamide] was run?
Answer: Its IC50 is 1.9 nM.

Question: Which IC50 (HIV protease) does the source give for `CC(C)(C)NC(=O)[C@@H]1CCCC[C@H]1C[C@@H](O)[C@H](Cc1ccccc1)NC(=O)[C@H](CC#N)NC(=O)OCc1ccccc1` [Compound F, 2(S)-[3(S)-[[N-(benzyloxycarbonyl)-3-cyano-L-alanyl]amino]-2(R)-hydroxy-4-phenylbutyl]-N-tert.butyl-1(R)-cyclohexanecarboxamide] here?
Answer: The IC50 was 2 nM.
